From BindingDB's records for doi:10.1111/j.1471-4159.1979.tb04553.x (1979) come the findings set out here.

pKi: −log10 of the molar value.

The target in the test is Gamma-aminobutyric acid type B receptor subunit 1 (UniProt Q9Z0U4).
Chain of Gamma-aminobutyric acid type B receptor subunit 1 (Q9Z0U4 whole entry): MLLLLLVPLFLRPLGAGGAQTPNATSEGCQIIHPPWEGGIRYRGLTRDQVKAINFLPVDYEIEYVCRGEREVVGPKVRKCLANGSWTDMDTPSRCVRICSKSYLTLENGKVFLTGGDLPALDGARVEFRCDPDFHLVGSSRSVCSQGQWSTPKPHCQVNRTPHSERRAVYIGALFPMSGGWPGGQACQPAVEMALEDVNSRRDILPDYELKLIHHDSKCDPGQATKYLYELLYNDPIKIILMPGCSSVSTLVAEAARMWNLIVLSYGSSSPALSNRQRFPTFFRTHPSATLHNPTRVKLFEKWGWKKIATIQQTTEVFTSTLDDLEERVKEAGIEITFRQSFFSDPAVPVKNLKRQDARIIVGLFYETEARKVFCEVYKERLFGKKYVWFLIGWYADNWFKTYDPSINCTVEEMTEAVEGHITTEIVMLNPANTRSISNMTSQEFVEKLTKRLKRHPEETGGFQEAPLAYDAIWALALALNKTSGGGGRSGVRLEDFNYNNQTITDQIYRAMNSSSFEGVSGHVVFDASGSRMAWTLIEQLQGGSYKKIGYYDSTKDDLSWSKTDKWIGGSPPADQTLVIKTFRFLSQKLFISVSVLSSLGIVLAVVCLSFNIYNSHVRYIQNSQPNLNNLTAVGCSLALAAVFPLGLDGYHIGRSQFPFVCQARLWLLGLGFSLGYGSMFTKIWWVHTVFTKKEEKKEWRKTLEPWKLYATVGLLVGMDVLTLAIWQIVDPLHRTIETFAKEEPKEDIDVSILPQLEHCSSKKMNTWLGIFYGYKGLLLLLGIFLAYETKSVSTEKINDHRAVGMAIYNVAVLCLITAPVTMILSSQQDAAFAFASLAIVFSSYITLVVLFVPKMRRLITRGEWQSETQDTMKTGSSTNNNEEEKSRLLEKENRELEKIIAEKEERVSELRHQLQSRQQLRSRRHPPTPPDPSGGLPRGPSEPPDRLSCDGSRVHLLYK
`CC(C)(O)C1C2OC(=O)C1C1(O)CC3OC34C(=O)OC2C14C` (stereo not given) [NSC_5311359] gave a pKi of less than 5.00. The result for `NCc1cc(=O)[nH]o1` reads 8.00; that for `c1c[nH]cn1`, 6.64; that for `N[C@@H]1C(=O)N2C(C(=O)O)=C(CSc3cnn[nH]3)CS[C@H]12` [CAS_37539-03-0], 7.29. In turn, `O=C(O)[C@@H]1CCCNC1` (racemic) [Nipecotic] had a pKi of less than 5.00.
